This note sets out measurements from US20260070945A1, “MACROCYCLIC IMMUNOMODULATORS” (Bristol-Myers Squibb Company, priority 2022, published 2026).

By IC50 is commonly meant the concentration that gives 50% inhibition.

Where a SMILES comes first, the peptide text is derived from it. Bridges are numbered along the chain shown (N, C = ends). [ ]: non-standard residue; d: D form. The star is where a group is joined. ξ: configuration not given here. Phe(4-COOH) = N[C@@H](Cc1ccc(C(=O)O)cc1)C(=O)O; Bip = N[C@@H](Cc1ccc(-c2ccccc2)cc1)C(=O)O; Phe(3-Me) = Cc1cccc(C[C@H](N)C(=O)O)c1; dIle(3ξ) = CCC(C)[C@@H](N)C(=O)O; Cha = N[C@@H](CC1CCCCC1)C(=O)O; Cit = NC(=O)NCCC[C@H](N)C(=O)O; Ile(3ξ) = CCC(C)[C@H](N)C(=O)O; NMeN = CN[C@@H](CC(N)=O)C(=O)O; Thr(3ξ) = CC(O)[C@H](N)C(=O)O; hSer = N[C@@H](CCO)C(=O)O; Carboxymethyl = O=C(O)C*; NMeA = CN[C@@H](C)C(=O)O; Orn = NCCC[C@H](N)C(=O)O; dNMeA = CN[C@H](C)C(=O)O; Aun = NCCCCCCCCCCC(=O)O; Dab = NCC[C@H](N)C(=O)O; AEEA = NCCOCCOCC(=O)O

The assay deals with T1, PD-1/PD-L1 interaction (PE-labeled human PD-L1-Ig binding to Jurkat cell line over-expressing human PD-1) (Homo sapiens, UniProt Q15116).
T1 construct: expressed in transfected cells; host or cells: Jurkat
T1 sequence (Q15116 25-288): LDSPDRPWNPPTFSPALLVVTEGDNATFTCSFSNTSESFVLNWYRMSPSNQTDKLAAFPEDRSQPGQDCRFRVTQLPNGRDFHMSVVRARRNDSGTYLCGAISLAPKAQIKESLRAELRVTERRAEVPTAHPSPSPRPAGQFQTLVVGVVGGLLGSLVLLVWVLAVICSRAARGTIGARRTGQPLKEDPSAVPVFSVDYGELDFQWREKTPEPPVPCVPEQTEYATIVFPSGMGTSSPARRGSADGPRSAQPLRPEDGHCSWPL
Kind of assay: Jurkat-PD-1 Cell Binding High-Content Screening Assay (CBA). Particulars: Jurkat-hPD-1 cells, PE-labeled PD-L1-Ig 20 nM final; read-out: Jurkat HPD1 PDL1 IC50. The method, boiled down:
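Read-out: high-content imaging of cell-bound PE fluorescence, with Hoechst 33342 nuclear counterstain after paraformaldehyde fixation. Before labeled ligand (20 nM final, 1 h) was added, compound sat on the cells for 2 h at 37 °C in DMEM/10% FCS.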
Regarding `Cc1cccc(C[C@@H]2NC(=O)[C@H](CC(=O)O)NC(=O)[C@H](Cc3ccc(OCC(=O)O)cc3)NC(=O)[C@H](CCCNC(=N)N)NC(=O)CSC[C@@H](C(=O)N[C@@H](CCN)C(=O)NCCCCCCCCCCC(=O)O)NC(=O)[C@H](C(C)O)NC(=O)[C@H](C(C)C)NC(=O)[C@H](CC3CCCCC3)NC(=O)[C@H](CCN)NC(=O)[C@@H](CC(C)C)NC(=O)[C@H](C)N(C)C(=O)[C@H](CCC(N)=O)NC(=O)[C@H](Cc3ccc(-c4ccccc4)cc3)NC(=O)[C@H](C(C)C)NC2=O)c1` (stereo partly drawn) [Example 2233] ({CH2CO}-RY(Carboxymethyl)D[Phe(3-Me)]V[Bip]Q[NMeA][dL][Dab][Cha]V[Thr(3ξ)]C[Dab][Aun]-OH; thioether N-14), the IC50 was determined as 9.7 nM. With `CC(C)C[C@@H]1NC(=O)[C@H](Cc2c[nH]c3ccccc23)NC(=O)[C@H](CC(=O)O)NC(=O)[C@H](Cc2ccc(C(=O)O)cc2)NC(=O)[C@H](Cc2ccc(OCC(=O)O)cc2)NC(=O)CSC[C@@H](C(=O)N[C@H](CC(N)=O)C(=O)NCCCCCCCCCCC(=O)O)NC(=O)[C@H](CO)NC(=O)[C@H](C(C)C)NC(=O)[C@H](CC2CCCCC2)NC(=O)[C@H](CCN)NC(=O)[C@@H](CC(C)C)NC(=O)[C@H](C)N(C)C(=O)[C@H](C(C)C)NC(=O)[C@H](Cc2ccc(-c3ccccc3)cc2)NC1=O` [Example 2234] ({CH2CO}-Y(Carboxymethyl)[Phe(4-COOH)]DWL[Bip]V[NMeA][dL][Dab][Cha]VSC[dN][Aun]-OH; thioether N-14) the figure was 13.4 nM. Then `Cc1cccc(C[C@@H]2NC(=O)[C@H](CC(=O)O)NC(=O)[C@H](Cc3ccc(C(=O)O)cc3)NC(=O)[C@H](Cc3ccc(OCC(=O)O)cc3)NC(=O)CSC[C@@H](C(=O)N[C@H](CC(N)=O)C(=O)NCCCCCCCCCCC(=O)O)NC(=O)[C@H](CO)NC(=O)[C@H](C(C)C)NC(=O)[C@H](CC3CCCCC3)NC(=O)[C@H](CCN)NC(=O)[C@@H](CC(C)C)NC(=O)[C@H](C)N(C)C(=O)[C@H](C(C)C)NC(=O)[C@H](Cc3ccc(-c4ccccc4)cc3)NC(=O)[C@H](CC(C)C)NC2=O)c1` [Example 2235] ({CH2CO}-Y(Carboxymethyl)[Phe(4-COOH)]D[Phe(3-Me)]L[Bip]V[NMeA][dL][Dab][Cha]VSC[dN][Aun]-OH; thioether N-14), with 20 nM. With `CCC(C)[C@H]1NC(=O)[C@H](Cc2ccc(-c3ccccc3)cc2)NC(=O)[C@H](CC(C)C)NC(=O)[C@H](Cc2c[nH]c3ccccc23)NC(=O)[C@H](CC(=O)O)NC(=O)[C@H](Cc2ccc(C(=O)O)cc2)NC(=O)[C@H](Cc2ccc(OCC(=O)O)cc2)NC(=O)CSC[C@@H](C(=O)NCCCCCCCCCCC(=O)O)NC(=O)[C@H](CCCCN)NC(=O)[C@H](C(C)C)NC(=O)[C@H](CC2CCCCC2)NC(=O)[C@H](CCN)NC(=O)[C@@H](CC(C)C)NC(=O)[C@@H](C)N(C)C1=O` (stereo partly drawn) [Example 2236] ({CH2CO}-Y(Carboxymethyl)[Phe(4-COOH)]DWL[Bip][dIle(3ξ)][dNMeA][dL][Dab][Cha]VKC[Aun]-OH; thioether N-14), the half-maximal inhibitory concentration (IC50) worked out at 13.1 nM. With `CCC(C)[C@@H]1NC(=O)[C@H](Cc2ccc(-c3ccccc3)cc2)NC(=O)[C@H](CC(C)C)NC(=O)[C@H](Cc2c[nH]c3ccccc23)NC(=O)[C@H](CC(=O)O)NC(=O)[C@H](Cc2ccc(C(=O)O)cc2)NC(=O)[C@H](Cc2ccc(OCC(=O)O)cc2)NC(=O)CSC[C@@H](C(=O)NCCCCCCCCCCC(=O)O)NC(=O)[C@H](CCCNC(=N)N)NC(=O)[C@H](C(C)C)NC(=O)[C@H](CC2CCCCC2)NC(=O)[C@H](CCN)NC(=O)[C@@H](CC(C)C)NC(=O)[C@H](C)N(C)C1=O` (stereo partly drawn) [Example 2237] ({CH2CO}-Y(Carboxymethyl)[Phe(4-COOH)]DWL[Bip][Ile(3ξ)][NMeA][dL][Dab][Cha]VRC[Aun]-OH; thioether N-14) the figure was 15 nM; with `CCC(C)[C@@H]1NC(=O)[C@H](Cc2ccc(-c3ccccc3)cc2)NC(=O)[C@H](C(C)C)NC(=O)[C@H](Cc2c[nH]c3ccccc23)NC(=O)[C@H](CC(=O)O)NC(=O)[C@H](Cc2ccc(OCC(=O)O)cc2)NC(=O)[C@H](Cc2ccc(OCC(=O)O)cc2)NC(=O)CSC[C@@H](C(=O)N[C@H](CC(N)=O)C(=O)NCCCCCCCCCCC(=O)O)NC(=O)[C@H](CCCCN)NC(=O)[C@H](C(C)C)NC(=O)[C@H](CC2CCCCC2)NC(=O)[C@H](CCN)NC(=O)[C@@H](CC(C)C)NC(=O)[C@H](C)N(C)C1=O` (stereo partly drawn) [Example 2239] ({CH2CO}-Y(Carboxymethyl)Y(Carboxymethyl)DWV[Bip][Ile(3ξ)][NMeA][dL][Dab][Cha]VKC[dN][Aun]-OH; thioether N-14), 6 nM; with `Cc1cccc(C[C@@H]2NC(=O)[C@H](CC(=O)O)NC(=O)[C@H](Cc3ccc(OCC(=O)O)cc3)NC(=O)[C@H](C(C)O)NC(=O)CSC[C@@H](C(=O)N[C@H](CC(N)=O)C(=O)NCCCCCCCCCCC(=O)O)NC(=O)[C@H](CCCN)NC(=O)[C@H](C(C)C)NC(=O)[C@H](CC3CCCCC3)NC(=O)[C@H](CCN)NC(=O)[C@@H](CC(C)C)NC(=O)[C@H](C)N(C)C(=O)[C@H](Cc3ccc(O)cc3)NC(=O)[C@H](Cc3ccc(-c4ccccc4)cc3)NC(=O)[C@H](C(C)C)NC2=O)c1` (stereo partly drawn) [Example 2241] ({CH2CO}-[Thr(3ξ)]Y(Carboxymethyl)D[Phe(3-Me)]V[Bip]Y[NMeA][dL][Dab][Cha]V[Orn]C[dN][Aun]-OH; thioether N-14), 10.2 nM. Then `CC(C)C[C@H]1NC(=O)[C@H](C)N(C)C(=O)[C@H](Cc2ccc(O)cc2)NC(=O)[C@H](Cc2ccc(-c3ccccc3)cc2)NC(=O)[C@H](C(C)C)NC(=O)[C@H](Cc2c[nH]c3ccccc23)NC(=O)[C@H](CC(=O)O)NC(=O)[C@H](Cc2ccc(OCC(=O)O)cc2)NC(=O)[C@H](C(C)O)NC(=O)CSC[C@@H](C(=O)N[C@H](CC(N)=O)C(=O)NCCCCCCCCCCC(=O)O)NC(=O)[C@H](CCCN)NC(=O)[C@H](C(C)C)NC(=O)[C@H](CC2CCCCC2)NC(=O)[C@H](CCN)NC1=O` (stereo partly drawn) [Example 2242] ({CH2CO}-[Thr(3ξ)]Y(Carboxymethyl)DWV[Bip]Y[NMeA][dL][Dab][Cha]V[Orn]C[dN][Aun]-OH; thioether N-14), with 114 nM; and `CC(C)C[C@H]1NC(=O)[C@H](CC(N)=O)N(C)C(=O)[C@H](C(C)C)NC(=O)[C@H](Cc2ccc(-c3ccccc3)cc2)NC(=O)[C@H](C(C)C)NC(=O)[C@H](Cc2c[nH]c3ccccc23)NC(=O)[C@H](CC(=O)O)NC(=O)[C@H](Cc2ccc(OCC(=O)O)cc2)NC(=O)[C@H](C(C)O)NC(=O)CSC[C@@H](C(=O)N[C@@H](CCN)C(=O)NCCCCCCCCCCC(=O)O)NC(=O)[C@H](C(C)O)NC(=O)[C@H](C(C)C)NC(=O)[C@H](CC2CCCCC2)NC(=O)[C@H](CCN)NC1=O` (stereo partly drawn) [Example 2243] ({CH2CO}-[Thr(3ξ)]Y(Carboxymethyl)DWV[Bip]V[NMeN][dL][Dab][Cha]V[Thr(3ξ)]C[Dab][Aun]-OH; thioether N-14), with 26 nM. For `CC(C)C[C@@H]1NC(=O)[C@H](Cc2c[nH]c3ccccc23)NC(=O)[C@H](CC(=O)O)NC(=O)[C@H](Cc2ccc(C(=O)O)cc2)NC(=O)[C@H](Cc2ccc(OCC(=O)O)cc2)NC(=O)CSC[C@@H](C(=O)NCCOCCOCC(=O)NCCCCCCCCCCC(=O)O)NC(=O)[C@H](CCO)NC(=O)[C@H](C(C)C)NC(=O)[C@H](CC2CCCCC2)NC(=O)[C@H](CCN)NC(=O)[C@@H](CC(C)C)NC(=O)[C@H](C)N(C)C(=O)[C@H](CCC(N)=O)NC(=O)[C@H](Cc2ccc(-c3ccccc3)cc2)NC1=O` [Example 2244] ({CH2CO}-Y(Carboxymethyl)[Phe(4-COOH)]DWL[Bip]Q[NMeA][dL][Dab][Cha]V[hSer]C[AEEA][Aun]-OH; thioether N-14), the IC50 stood at 38.6 nM.

For the compound `Cc1cccc(C[C@@H]2NC(=O)[C@H](CC(=O)O)NC(=O)[C@H](Cc3ccc(C(=O)O)cc3)NC(=O)[C@H](Cc3ccc(OCC(=O)O)cc3)NC(=O)CSC[C@@H](C(=O)NCCCCCCCCCCC(=O)O)NC(=O)[C@H](CCCNC(N)=O)NC(=O)[C@H](C(C)C)NC(=O)[C@H](CC3CCCCC3)NC(=O)[C@H](CCN)NC(=O)[C@@H](CC(C)C)NC(=O)[C@H](C)N(C)C(=O)[C@H](CC(C)C)NC(=O)[C@H](Cc3ccc(-c4ccccc4)cc3)NC(=O)[C@H](CC(C)C)NC2=O)c1` [Example 2245] ({CH2CO}-Y(Carboxymethyl)[Phe(4-COOH)]D[Phe(3-Me)]L[Bip]L[NMeA][dL][Dab][Cha]V[Cit]C[Aun]-OH; thioether N-14), the IC50 was found to be 25 nM. Consider `Cc1cccc(C[C@@H]2NC(=O)[C@H](CC(=O)O)NC(=O)[C@H](Cc3ccc(C(=O)O)cc3)NC(=O)[C@H](Cc3ccc(OCC(=O)O)cc3)NC(=O)CSC[C@@H](C(=O)NCCCCCCCCCCC(=O)O)NC(=O)[C@H](CCCNC(N)=O)NC(=O)[C@H](C(C)C)NC(=O)[C@H](CC3CCCCC3)NC(=O)[C@H](CCN)NC(=O)[C@@H](CC(C)C)NC(=O)[C@H](C)N(C)C(=O)[C@H](CCC(N)=O)NC(=O)[C@H](Cc3ccc(-c4ccccc4)cc3)NC(=O)[C@H](CC(C)C)NC2=O)c1` [Example 2246] ({CH2CO}-Y(Carboxymethyl)[Phe(4-COOH)]D[Phe(3-Me)]L[Bip]Q[NMeA][dL][Dab][Cha]V[Cit]C[Aun]-OH; thioether N-14), for which the IC50 stood at 16.1 nM. For `CC(=O)NCCCC[C@@H]1NC(=O)[C@H](Cc2ccc(-c3ccccc3)cc2)NC(=O)[C@H](CC(C)C)NC(=O)[C@H](Cc2cccc(C)c2)NC(=O)[C@H](CC(=O)O)NC(=O)[C@H](Cc2ccc(C(=O)O)cc2)NC(=O)[C@H](Cc2ccc(OCC(=O)O)cc2)NC(=O)CSC[C@@H](C(=O)NCCCCCCCCCCC(=O)O)NC(=O)[C@H](CCCNC(N)=O)NC(=O)[C@H](C(C)C)NC(=O)[C@H](CC2CCCCC2)NC(=O)[C@H](CCN)NC(=O)[C@@H](CC(C)C)NC(=O)[C@H](C)N(C)C1=O` [Example 2247] ({CH2CO}-Y(Carboxymethyl)[Phe(4-COOH)]D[Phe(3-Me)]L[Bip]K(Ac)[NMeA][dL][Dab][Cha]V[Cit]C[Aun]-OH; thioether N-14), the IC50 was 4.9 nM.
